Assay type in all cases: cell-based, mouse
The test system of experiment [1] is tyrosinase. Kind of experiment: Western blot of tyrosinase protein expression in B16 melanoma cells. Conditions: for time response of tyrosinase suppression: single dose, 24 hrs versus 48 hrs. How it is done: Carcinogenesis, 2006, 27, 2180-9. Briefly, cell lysates were prepared by suspending cell pellets in lysis buffer (50 mmol/l Tris-HCl [pH 8.0], 150 mmol/l NaCl, 1% NP40, 0.5% deoxycholate, 0.1% SDS, […], 1 μg/ml leupeptin, and 1 mmol/l phenylmethylsulfonyl fluoride). The protein concentration was measured using the DC Protein Assay kit (Bio-Rad, Hercules, Calif., USA). An equal amount of protein (30 μg) was loaded onto a 10% SDS polyacrylamide gel for electrophoresis, then transferred onto a polyvinylidene difluoride membrane (Amersham, Piscataway, N.J., USA). The membrane was then incubated with primary antibodies for 1 hr at room temperature against tyrosinase, Id1, and beta-actin (Santa Cruz Biotechnology, Inc., Santa Cruz, Calif., USA). After incubation with appropriate secondary antibodies, signals were visualized by an ECL Western blotting system (Amersham). The expression of β-actin was assessed as an internal loading control for total cell lysate.

For experiment [2], the system named is cleaved caspase 3 and PARP. Kind of experiment: Western blot of apoptotic molecules. As to conditions: B16 melanoma cells.
The next experiment has as its system tyrosinase mRNA. Kind of experiment: Reverse transcriptase PCR of tyrosinase mRNA. Conditions: B16 melanoma cells. An excerpt: Total RNA was isolated using Trizol reagent according to the manufacturer's protocol (Invitrogen, Carlsbad, Calif., USA). cDNA was synthesized using the SuperScript First Strand Synthesis System (Invitrogen, Carlsbad, Calif., USA) and was then amplified by PCR with tyrosinase-specific primers (forward primer, tyrosinase-S,5′-[…]-3′ [−2236/−2217] (SEQ ID NO: 1) and reverse primer, tyrosinase-AS,5′-[…]-3′ [+63/+42]) (SEQ ID NO: 2) and GAPDH specific primers: 5′ to 3′F […] (SEQ ID NO: 3); 5′ to 3′R […] (SEQ ID NO: 4). The PCR cycling protocol was as follows: 30 cycles for 10 min at 95° C., 30 sec at 95° C., 30 sec at 55° C., 1 min at 72° C., and 10 min at 72° C. Glyceraldehyde 3-phosphate dehydrogenase (GAPDH) was amplified as an internal control. The PCR products were electrophoresed on a 2% agarose gel and analyzed using a gel documentation system.

For experiment [3], the system named is B16 melanoma cells. Kind of experiment: MTT cell viability assay. Conditions: 24 hrs of treatment; for B16 melanoma cell viability / proliferation rate: increasing dosages. The procedure: B16 mouse melanoma cells were purchased from (ATCC, Manassas, Va., USA).
The base medium for the cell line was Dulbecco's modified Eagle's medium (DMEM). To make the complete growth medium, fetal bovine serum (final concentration, 10%) was added to the base medium. Tocotrienol (T3) and tocopherol (TP) isomers and the palm tocotrienol-rich fraction (TRF) were purified from a palm fatty acid distillate (PFAD) using molecular distillation and Novasep® equipment (Novasep, Pompey, France). The extraction facility is located in Tuas, Singapore. The PFAD feed was purchased from Kuala Lumpur Kepong Berhad (Kuala Lumpur, Malaysia). The purity of the vitamin E isomers was verified by HPLC and gas chromatography (GC) percentage peak area.
For the cell viability study, 5×10^3 cells re-suspended in 100 μl of medium were plated into each well of a 96-well plate. The cells were then treated with different concentrations of the vitamin-E isomers for 24 hrs. After the treatment, 20 μl of MTT solution (1 mg/ml in PBS; Sigma-Aldrich, St. Louis, Mo., USA) was added to each well and the cells were incubated at 37° C. for 2 hrs. The formazan crystals were then re-suspended in 200 μl of DMSO and the intensity at 595 nm was measured.
A general note: Formazan colour is commonly taken as a measure of viable cells.

Experiment [4] relates to B16 melanoma cells. Kind of experiment: Anti-pigmentation effect, photographs of cell pellets. How it is done: At different time points, cells were harvested using trysin-EDTA and the cell pellets were washed once with phosphate-buffered saline (PBS). A sample amount from each compound treatment group was divided into two equal parts. These cell pellets were then stored at −80° C. prior to the measurement of the tyrosinase activity and melanin content.

Experiment [5] deals with tyrosinase. Kind of experiment: UV-induced tyrosinase protein expression, Western blot. As to conditions: UV 1, 10, 30 and 60 minutes.
Description: The UVB source for cell irradiation was provided using a UVP UVM-57 handheld UV lamp (UVP Inc, Upland, Calif., USA).
Briefly, cell lysates were prepared by suspending cell pellets in lysis buffer (50 mmol/l Tris-HCl [pH 8.0], 150 mmol/l NaCl, 1% NP40, 0.5% deoxycholate, 0.1% SDS, 1 mg/ml aprotinin, 1 μg/ml leupeptin, and 1 mmol/l phenylmethylsulfonyl fluoride). The protein concentration was measured using the DC Protein Assay kit (Bio-Rad, Hercules, Calif., USA). An equal amount of protein (30 μg) was loaded onto a 10% SDS polyacrylamide gel for electrophoresis, then transferred onto a polyvinylidene difluoride membrane (Amersham, Piscataway, N.J., USA). The membrane was then incubated with primary antibodies for 1 hr at room temperature against tyrosinase, Id1, and beta-actin (Santa Cruz Biotechnology, Inc., Santa Cruz, Calif., USA). After incubation with appropriate secondary antibodies, signals were visualized by an ECL Western blotting system (Amersham). The expression of β-actin was assessed as an internal loading control for total cell lysate.
The mark [6] stands for this setting: 0.05% (3.5 mM kojic acid, 4.5 mM sodium lactate).

Here are results for eight compounds from patent publication US20130317096A1, “SYNERGISTIC INTERACTION OF AT LEAST ONE VITAMIN E COMPONENT AND TYROSINASE INHIBITORS FOR DERMATOLOGICAL APPLICATIONS” (Davos Life Science Pte Ltd, priority 2010, published 2013).

“Also recorded” adds a separate entry of the source. Where only a bound is given, the exact number is not on record here.

On to `CC(=O)Oc1cc(C)c2c(c1)CCC(C)(CCC=C(C)CCC=C(C)CCC=C(C)C)O2` (stereo not drawn) [δT3 acetate, δ-tocotrienol acetate], for which the tyrosinase protein expression entry in the experiment with tyrosinase [1] (20 μM treatment) was “suppresses tyrosinase protein expression”.
As for `O=c1cc(CO)occ1O` [kojic acid], the “induction of apoptotic molecules (cleaved caspase 3 and PARP)” value (“induction of apoptotic molecules” for short) in experiment [2] is “induced cellular apoptosis; also recorded: induced critical apoptotic molecules in a dose-dependent manner”. Moreover, in the experiment on tyrosinase mRNA, the “tyrosinase mRNA” value is on record as “not affected; also recorded: No change of tyrosinase mRNA”. In the experiment on B16 melanoma cells [3], the “concentration with anti-proliferation effect” value was no less than 0.5% and the “B16 melanoma cell viability / proliferation rate” value was “inhibit B16 melanoma cell viability at high concentrations”. In addition, the cell pellet pigmentation result in the experiment with B16 melanoma cells [4] (20 μM) is “comparable pigmentation level to controls”. Also, the cell pellet pigmentation result in the experiment on B16 melanoma cells [4] (setting [6]) was “lighter cell pigmentation”.
As for `CC(O)C(=O)[O-].[Na+]` (stereo not drawn) [sodium lactate, reference compound], the values for the tyrosinase protein expression entry with tyrosinase [1] (20 μM treatment) and in the experiment on tyrosinase [1] (up to 100 μM) were “did not result in observable down-regulation; also recorded: does not suppress tyrosinase protein expression” and “does not suppress tyrosinase protein expression”, respectively. For the same compound, the “tyrosinase protein suppression, dose response and relative potency” value in the experiment with tyrosinase [1] (increasing dosage) is given as “observed only at much higher concentration”. For the same compound, the “time response of tyrosinase suppression” value in the experiment with tyrosinase [1] is “opposite observation; also recorded: diminished after 48 hrs”. Further, the “tyrosinase mRNA” value in the experiment with tyrosinase mRNA is reported as “not affected; also recorded: No change of tyrosinase mRNA”. Further, the values for the cell pellet pigmentation result in the experiment with B16 melanoma cells [4] (20 μM) and with B16 melanoma cells [4] (setting [6]) were “comparable pigmentation level to controls” and “Lighter pigmentation”, respectively.
With `Cc1c(C)c2c(c(C)c1O)CC[C@@](C)(CCC[C@H](C)CCC[C@H](C)CCCC(C)C)O2` [α-tocopherol, 5,7,8-trimethyltocol], the “time response of tyrosinase suppression” value in the experiment with tyrosinase [1] is “no impact on the suppression of tyrosinase”. Further, the “tyrosinase mRNA” value in the experiment with tyrosinase mRNA is “No change of tyrosinase mRNA”; in the experiment with tyrosinase mRNA (listed as αTP) it was “not affected”. Further, the “tyrosinase protein expression of B16 cells exposed to UV” value in the experiment on tyrosinase [5] is given as “not able to block UVB-induced activation of tyrosinase at all time points tested”. In addition, in the experiment with B16 melanoma cells [4] (20 μM), the cell pellet pigmentation entry is on record as “comparable pigmentation level to controls”.
Regarding `CC(C)=CCCC(C)=CCCC(C)=CCCC1(C)CCc2cc(OC(=O)CCC(=O)O)c(C)c(C)c2O1` (stereo not drawn) [γT3 succinate, γ-tocotrienol succinate], the tyrosinase protein expression entry in the experiment with tyrosinase [1] (up to 60 μM) is given as “does not suppress tyrosinase protein expression”.
In the case of alpha arbutin [reference compound], the “induction of apoptotic molecules” value in experiment [2] is reported as “induced critical apoptotic molecules in a dose-dependent manner”. For the same compound, the “concentration at which suppression of tyrosinase is observed” value with tyrosinase [1] stood at 1 mM. For the same compound, the tyrosinase protein expression entry in the experiment on tyrosinase [1] (up to 60 μM) is recorded as “does not suppress tyrosinase protein expression”. In addition, in the experiment on B16 melanoma cells [3], the “B16 melanoma cell viability / proliferation rate” value was “inhibit B16 melanoma cell viability at high concentrations”. For the same compound, the cell pellet pigmentation result is reported as “comparable pigmentation level to controls” with B16 melanoma cells [4] (20 μM) and “lighter cell pigmentation” with B16 melanoma cells [4] (1 mM).
Regarding `CC(C)=CCC/C(C)=C/CC/C(C)=C/CC[C@]1(C)CCc2c(C)c(O)cc(C)c2O1` [β-tocotrienol, 5,8-dimethyltocotrienol], the “induction of apoptotic molecules” value is listed as “induced critical apoptotic molecules in a dose-dependent manner” in experiment [2] and “induced cellular apoptosis” in experiment [2] (listed as β-T3). Moreover, in the experiment with B16 melanoma cells [3], the “B16 melanoma cell viability / proliferation rate” value was “inhibited the proliferation rate of B16 melanoma cells in a dose-dependent fashion; also recorded: inhibit B16 melanoma cell viability at high concentrations”.
As to `CC(=O)Oc1cc2c(c(C)c1C)OC(C)(CC/C=C(\C)CC/C=C(\C)CCC=C(C)C)CC2` (stereo not drawn) [γT3 acetate, γ-tocotrienol acetate], in the experiment with tyrosinase [1] (20 μM treatment), the tyrosinase protein expression result is reported as “suppresses tyrosinase protein expression”.
